Measurements taken from PMC6689431 (Biochimica et biophysica acta. Biomembranes, 2019).

Key:
[1] = Fluorescence intensity of TAMRA-labeled peptides with detergents; assay type: physicochemical; settings: 0.2 µM peptide, 50 mM Tris pH 8 + 0.1% (w/v) SDS, no cells, λex 544/λem 590 nm
[2] = Fluorescence intensity of TAMRA-labeled peptides at different pH / buffers; assay type: physicochemical; settings: 0.2 µM peptide; for fluorescence intensity in Tris buffer pH 8: 50 mM Tris pH 8, λex 544/λem 590 nm, mean ± SD

Substance	increase of fluorescence intensity in Tris+SDS compared to Tris buffer alone [1] [×]	decrease of fluorescence intensity, citric acid versus Tris buffer, both pH 8 [2] [%]	fluorescence intensity in Tris buffer pH 8 [2]
^*-LLRLLRWWWRLLRLL-ANSRWPTSII [*WRAP5-iCAL36]	15	–	–
^*-GALFLGWLGAAGSTMGAWSQPKKKRKV-ANSRWPTSII [*MPG-iCAL36]	7	36	68,132 ± 5,731
^*-GRKKRRQRRRPPQ-ANSRWPTSII [*Tat-iCAL36]	–	–	103,693 ± 2,848
^*-RLWRLLWRLWRRLWRLLR-ANSRWPTSII [*C6M1-iCAL36]	9	–	–
